Laboratory results published in patent US20220389379A1, “PRIMARY BREAST EPITHELIAL CELL CULTURE MEDIUM, CULTURE METHOD AND USE THEREOF” (PRECEDO PHARMACEUTICALS CO., LTD, priority 2019, published 2022).

system: primary breast tumor epithelial cells isolated from breast cancer tissues (HMFL-XN1, HMFL-XN3, HMFL-XN4, HMFL-XN6, HMFL-XN8); assay: Optimization of primary breast epithelial cell culture medium: cell count after culture with medium additives; assay type: cell-based, human; set-up: key: +: compared with the basis medium, the medium added with the additive(s) can promote the proliferation of primary breast tumor epithelial cells isolated from at least three cases of breast cancer tissues; −: the medium added with the additive(s) has the effect of inhibiting proliferation of primary breast tumor epithelial cells isolated from at least two cases of breast cancer tissues; ○: the medium added with this additive(s) has no significant effect on the proliferation of primary breast tumor epithelial cells isolated from at least three cases of breast cancer tissues; conditions: not given
Protocol: Matrigel (registered trademark) (manufactured by BD Biosciences) was diluted at 1:100 in serum-free DMEM/F12 medium to prepare an extracellular matrix dilution, which was added to a 48-well culture plate with 200 μl/well to completely cover the bottom of the wells of the culture plate. The resultant was let stand for 1 hour in a 37° C. incubator. After 1 hour, the extracellular matrix dilution was removed to provide a Matrigel-coated plate.
First, a basis medium was prepared. To a commercial DMEM/F-12 medium, GlutaMAX-I (manufactured by Thermo Fisher SCIENTIFIC) was added at the specified concentration (1:100 dilution), human insulin (manufactured by Sigma) was added at a final concentration of 10 μg/ml, ROCK kinase inhibitor Y27632 (manufactured by Sigma) was added at a final concentration of 10 μM, and penicillin-streptomycin (manufactured by Thermo Fisher SCIENTIFIC) was added at a 1:100 dilution ratio, which provides the basis medium.
Next, different types of additives (as shown in Table 1) were added to the basis medium to prepare breast epithelial cell culture mediums containing different supplementary components, and the mediums with different components were added at a volume of 500 μl/well to 48-well plates which were coated with extracellular matrix gel (Matrigel). Breast tumor cells (HMFL-XN1) isolated from breast cancer tissue in step (1) of this Example were inoculated in a Matrigel-coated 48-well culture plate at a cell density of 1×10^4 cells/well, and equal numbers of freshly isolated breast tumor cells (HMFL-XN1) were cultured under different medium formulations at 37° C., under 5% CO2 concentration and 20% oxygen concentration. The medium was renewed every 4 days after the start of the culture. After 10 days of culture, cell counts were performed. As an experiment control, the basis medium without any additives was used. Breast tumor cells isolated from the remaining four breast cancer tissue samples were cultured and counted in the same manner as above.

Row | Molecule | Degree of cell
1 | Cholera toxin | ○

same assay, conditions: additive at the concentration given in Table 1 added to basis medium; cell count after 10 days of culture, compared with basis medium; five breast cancer samples

Row | Molecule | Degree of cell
2 | Cc1cccc(-c2nn(C(=S)Nc3ccccc3)cc2-c2ccnc3ccccc23)n1 [A8301, reference compound] | +
3 | Cc1ccc2c(c1)C(=O)C1(O)CCN(c3ccccc3)C1=N2 (centres unmarked) [Blebbistatin, reference compound] | −
4 | CC(=O)N[C@@H](CS)C(=O)O [N-Acetyl Cysteine, reference compound] | −
5 | NC(=O)c1cccnc1 [Nicotinamide, reference compound] | −
6 | CCCCC[C@H](O)/C=C/[C@H]1[C@H](O)CC(=O)[C@@H]1C/C=C\CCCC(=O)O [Prostaglandin E2, reference compound] | −
7 | Oc1ccc(-c2nc(-c3ccncc3)c(-c3ccc(F)cc3)[nH]2)cc1 [SB202190, reference compound] | +
8 | N[C@@H](Cc1cc(I)c(Oc2ccc(O)c(I)c2)c(I)c1)C(=O)O [Triiodothyronine, reference compound] | ○
9 | Basic fibroblast growth factor: medium additive (R&D) | +
10 | Epidermal growth factor: epidermal growth factor (EGF), medium additive (NSDSECPLSHDGYCLHDGVCMYIEALDKYACNCVVGYIGERCQYRDLKWWELR; UniProt P01133 971-1023, looked up) | +
11 | Hepatocyte growth factor: medium additive (Peprotech) | +
12 | Human leukemia inhibitory factor: medium additive (Peprotech) | −
13 | Insulin growth factor1: medium additive (Peprotech) | +
14 | Interleukin 6: medium additive (R&D) | −
15 | Neuregulin 1 | +

system: breast tumor cells (HMFL-XN12); assay: Drug sensitivity functional test, Cell Titer-Glo cell viability; assay type: cell-based; conditions: Homo sapiens; HMFL-XN12, HER2-positive patient; 72 hours after administration; read-out: half-inhibitory amount (IC50)
Protocol: (§1) 1. Plating of primary breast tumor cells: the single cell suspension of breast tumor cells (HMFL-XN5, HMFL-XN7, HMFL-XN10, HMFL-XN12, and HMFL-XN29) obtained by the same method of the invention according to step (3) of Example 4, was inoculated at a density of 3000-5000 cells/well in a 384-well plate, and the cells were adhered overnight.
(§2) (1) The drug storage plates were prepared by gradient dilution method: 10 μL of the drug stock solutions to be tested (the concentration of the drug stock solution was determined based on 2 times of the maximum blood concentration Cmax of the drug in the human body) were respectively taken, and added to 0.5 mL EP tubes containing 20 μL of DMSO; 10 μL of solutions from the above EP tubes were pipetted into second 0.5 mL EP tubes loaded with 20 μL of DMSO, that is, diluting the drugs in a ratio of 1:3. The above method was repeated for gradually dilution and 7 concentrations required for dosing were obtained. Different concentrations of drugs were added to the 384-well drug storage plates. Equal volume of DMSO was added to each well of the solvent control group as a control. In this example, the drugs to be tested were epirubicin (manufactured by MCE), lapatinib (manufactured by MCE), docetaxel (manufactured by MCE), and tamoxifen (manufactured by MCE).
(§3) (2) Using a high-throughput automated workstation (purchased from Perkin Elmer), different concentrations of drugs and solvent controls in the 384-well drug storage plates were added to 384-well cell culture plates plated with the breast tumor cells. […]
(§4) (3) Test of cell viability: 72 hours after administration, Cell Titer-Glo assay kit (manufactured by Promega) was used to detect the chemiluminescence value of the cultured cells after drug administration. […] The prepared Cell Titer-Glo detection solution was added to each well, and a microplate reader was used to detect the chemiluminescence value after mixing.
(§5) Graphs were made by using Graphpad Prism 7.0 software and the half-inhibition rate IC50 was calculated.

Row | Molecule | IC50
16 | CS(=O)(=O)CCNCc1ccc(-c2ccc3ncnc(Nc4ccc(OCc5cccc(F)c5)c(Cl)c4)c3c2)o1 [lapatinib] | 920 nM

system: breast tumor cells (HMFL-XN7); assay: as above; assay type: cell-based; conditions: Homo sapiens; HMFL-XN7, hormone receptor-positive, HER2 receptor-negative patient; 72 hours after administration; read-out: half-inhibition rate IC50
Protocol: as §1, §2, §3, §4, §5

Row | Molecule | IC50
17 | CS(=O)(=O)CCNCc1ccc(-c2ccc3ncnc(Nc4ccc(OCc5cccc(F)c5)c(Cl)c4)c3c2)o1 [lapatinib] | 2500 nM
18 | CC/C(=C(\c1ccccc1)c1ccc(OCCN(C)C)cc1)c1ccccc1 [tamoxifen] | 980 nM

system: breast tumor cells (HMFL-XN29); assay: as above; assay type: cell-based, human; conditions: HMFL-XN29, triple-negative patient; 72 hours after administration
Protocol: as §1
(1) The drug storage plates were prepared by gradient dilution method: 10 μL of the drug stock solutions to be tested (the concentration of the drug stock solution was determined based on 2 times of the maximum blood concentration Cmax of the drug in the human body) were respectively taken, and added to 0.5 mL EP tubes containing 20 μL of DMSO; 10 μL of solutions from the above EP tubes were pipetted into second 0.5 mL EP tubes loaded with 20 μL of DMSO, that is, diluting the drugs in a ratio of 1:3. […]
as §4, §5

Row | Molecule | drug sensitivity compared with breast tumor cells from other patients
19 | CS(=O)(=O)CCNCc1ccc(-c2ccc3ncnc(Nc4ccc(OCc5cccc(F)c5)c(Cl)c4)c3c2)o1 [lapatinib] | less sensitive
20 | CC/C(=C(\c1ccccc1)c1ccc(OCCN(C)C)cc1)c1ccccc1 [tamoxifen] | less sensitive
